Experimental data as given in patent publication US6015879A, “Peptide and peptide analog protease inhibitors” (Sibia Neurosciences, Inc., priority 1995, dated 2000).
Non-standard residues stand in square brackets, D forms with d. Residues, ends and D or L forms follow the SMILES beside them. ξ: configuration not given here. *: point of attachment. Chg = N[CH](C(=O)O)C1CCCCC1; Nle = CCCC[CH](N)C(=O)O; Cbz = O=C(OCc1ccccc1)*; ξNle = CCCCC(N)C(=O)O; CHN2 = [N-]=[N+]=C*

Tested on: Aβ formation in HGB 717/Swed cells
Test: Immunoblot assay for Aβ peptide (inhibition of Aβ formation)
Type: cell-based, Human
Details: overnight, relative to DMSO control

SMILES | % INHIBITION OF Aβ (concentration of 40 μM) [%] | % INHIBITION OF Aβ (concentration of 75 μM) [%] | other results
C=C(C)CC(C=O)NC(=O)[C@H](CC(C)C)NC(=O)[C@H](CC(C)C)OCc1ccccc1 (mixture of isomers) [2S-benzoxyvaleric-L-Lene-(H), (2SR)-N-[(2S)-2-benzoxy-4-methylpentanoyl]-L-Leu N-[2-(4-methyl-4-pentenal)]amide] | 85 |  | 
CC(=O)N[C@@H](CC(C)C)C(=O)N[C@@H](CC(C)C)C(=O)NC(C=O)CC1CCCCC1 (mixture of isomers) [Ac-L-L-Cha-(H), N-Ac-L-Leu-L-Leu-DL-cyclohexylalaninal] |  |  | % INHIBITION OF Aβ (concentration of 10 μM): 46%
CCCCC(NC(=O)[C@H](CC(C)C)NC(=O)[C@H](CC(C)C)NC(C)=O)C(=O)C(F)(F)F (mixture of isomers) [Ac-L-L-Nl-(TFMK), (3SR)-N-Ac-L-Leu-L-Leu N-[3-(1,1,1-trifluoro-2-oxoheptyl)]amide] |  | 50 | 
CC=CCC(C=O)NC(=O)[C@H](CC(C)C)NC(=O)[C@H](CC(C)C)NC(C)=O (mixture of isomers) [Ac-L-L-Nlene-(H), (2SR)-N-Ac-L-Leu-L-Leu N [2-(trans-4-hexenal)]amide] |  | 96 | 
CC(C)C[C@H](NC(=O)OCc1ccccc1)C(=O)N[C@@H](Cc1ccccc1)C(=O)NC(C=O)CC1CCCCC1 (mixture of isomers) [Cbz-L-F-Cha-(H), (2SR)-N-Cbz-L-Leu-L-Phe-DL-cyclohexylalaninal] | 100 |  | 
C=C(C)CC(C=O)NC(=O)[C@H](Cc1ccccc1)NC(=O)[C@H](CC(C)C)NC(=O)OCc1ccccc1 (mixture of isomers) [Cbz-L-F-Lene-(H), (2SR)-N-Cbz-L-Leu-L-Phe-N-[2-(4-methyl-4-pentenal)]amide] |  |  | % INHIBITION OF Aβ (concentration of 10 μM): 69%
C=C(C)CC(C=O)NC(=O)[C@H](CC(C)C)NC(=O)[C@H](CC(C)C)NC(=O)OCc1ccccc1 (mixture of isomers) [Cbz-L-L-Lene-(H), (2SR)-N-Cbz-L-Leu-L-Leu N-[2-(4-methyl-4-pentenal)]amide] |  |  | % INHIBITION OF Aβ (concentration of 10 μM): 95%
CCCCC(C=O)N(C)C(=O)[C@H](CC(C)C)NC(=O)[C@H](CC(C)C)NC(=O)OCc1ccccc1 (mixture of isomers) [Cbz-L-L-[CH3]-Nl-(H), N-Cbz-L-Leu-L-Leu-DL-(methyl)norleucinal] | 97 |  | 
CCCCC(C=O)NC(=O)[C@H](CC(C)C)N(C)C(=O)[C@H](CC(C)C)NC(=O)OCc1ccccc1 (mixture of isomers) [Cbz-L-[CH3]-L-Nl-(H), N-Cbz-L-Leu-L-(methyl)Leu-DL-norleucinal] | 77 |  | 
CCCCC(C=O)NC(=O)[C@H](CC(C)C)NC(=O)[C@H](CC(C)C)NC(=O)OCC1c2ccccc2-c2ccccc21 (mixture of isomers) [Fmoc-L-L-Nl-(H), N-Fmoc-L-Leu-L-Leu-DL-norleucinal] |  |  | % INHIBITION OF Aβ (concentration of 50 μM): 89%
CC(=O)NC(CC(C)C)C(=O)NC(CC(C)C)C(=O)NC(C=O)C1CCCCC1 [Ac-L-L-Chg-(H)] (Ac-Leu-Leu-[Chg]-aldehyde; configuration not given here) |  | 99 | 
CCCCC(C#N)NC(=O)[C@H](CC(C)C)NC(=O)[C@H](CC(C)C)NC(C)=O (stereo partly drawn) [Ac-L-L-Nl-(CN), (2S)-N-Ac-L-Leu-L-Leu N-[2-(hexanenitrile)]amide] |  | 94 | 
CCCCC(NC(=O)[C@H](CC(C)C)NC(=O)[C@H](CC(C)C)NC(C)=O)C(=O)C=[N+]=[N-] (stereo partly drawn) [Ac-L-L-Nl-(DM), N-Ac-L-Leu-L-Leu-L-Nle-COCHN2] (Ac-Leu-Leu-[ξNle]-CHN2) |  | 87 | 
CCCCC(C=O)NC(=O)C(CC(C)C)NC(=O)C1CCCN1C(=O)OCc1ccccc1 [Cbz-P-L-Nl-(H), N-Cbz-L-Pro-L-Leu-L-norleucinal] (Cbz-Pro-Leu-[Nle]-aldehyde; configuration not given here) | 80 |  | 
